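The compound was tested at five concentrations on cells cultured in 96-well plates, with a 48-hour exposure period. Abbreviation: GI50, concentration required for 50% inhibition of growth. TGI denotes the concentration required for complete inhibition of growth.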
Assays:
Assay in all cases: NCI anticancer screen, dose series, 48 h
[1] = test system: 786-0 renal
[2] = test system: A498 renal
[3] = test system: A549 NSCLC
[4] = test system: ACHN renal
[5] = test system: BT-549 breast
[6] = test system: CAKI-1 renal
[7] = test system: CCRF-CEM leukemia
[8] = test system: COLO 205 colon
[9] = test system: DU-145 prostate
[10] = test system: EKVX NSCLC
[11] = test system: HCC-2998 colon
[12] = test system: HCT-116 colon
[13] = test system: HCT-15 colon
[14] = test system: HL-60(TB) leukemia
[15] = test system: HOP-62 NSCLC
[16] = test system: HOP-92 NSCLC
[17] = test system: HS 578T breast
[18] = test system: HT29 colon
[19] = test system: IGROV1 ovarian
[20] = test system: K-562 leukemia
[21] = test system: KM12 colon
[22] = test system: LOX IMVI melanoma
[23] = test system: M14 melanoma
[24] = test system: MALME-3M melanoma
[25] = test system: MCF7 breast
[26] = test system: MDA-MB-231 breast
[27] = test system: MDA-MB-435
[28] = test system: MOLT-4 leukemia
[29] = test system: NCI-H226 lung
[30] = test system: NCI-H23 lung
[31] = test system: NCI-H460 lung
[32] = test system: NCI-H522 lung
[33] = test system: NCI/ADR-RES ovarian
[34] = test system: OVCAR-3 ovarian
[35] = test system: OVCAR-4 ovarian
[36] = test system: OVCAR-5 ovarian
[37] = test system: OVCAR-8 ovarian
[38] = test system: PC-3 prostate
[39] = test system: RPMI-8226 leukemia
[40] = test system: RXF 393 renal
[41] = test system: SF-268 CNS
[42] = test system: SF-295 CNS
[43] = test system: SK-MEL-2 melanoma
[44] = test system: SK-MEL-28 melanoma
[45] = test system: SK-MEL-5 melanoma
[46] = test system: SK-OV-3 ovarian
[47] = test system: SN12C renal
[48] = test system: SNB-19 CNS
[49] = test system: SNB-75 CNS
[50] = test system: SR leukemia
[51] = test system: SW-620 colon
[52] = test system: T-47D breast
[53] = test system: TK-10 renal
[54] = test system: U251 CNS
[55] = test system: UACC-257 melanoma
[56] = test system: UACC-62 melanoma
[57] = test system: UO-31 renal

CC12OC(CC(O)C1O)n1c3ccccc3c3c4c(c5c6ccccc6n2c5c31)C(=O)N(CCN1CCOCC1)C4=O (centres undefined) gave a GI50 [1] of 1290 nM, a TGI [1] of 5680 nM and a GI50 [2] of 838 nM. The TGI [2] was 3270 nM, the GI50 [3] was 400 nM and the TGI [3] was 2350 nM. It also gave a GI50 [4] of 526 nM, a TGI [4] of 1690 nM and a GI50 [5] of 1610 nM. For the same molecule, the TGI [5] was 8210 nM, the GI50 [6] was 1020 nM and the TGI [6] was 5430 nM. The GI50 [7] was 1160 nM, the TGI [7] was 8950 nM and the GI50 [8] was 606 nM. It also gave a TGI [8] of 4510 nM, a GI50 [9] of 949 nM and a TGI [9] of 6100 nM. It also gave a GI50 [10] of 1480 nM, a TGI [10] of 8940 nM and a GI50 [11] of 3250 nM. For the same molecule, the TGI [11] was 10600 nM, the GI50 [12] was 625 nM and the TGI [12] was 5510 nM. For the same molecule, the GI50 [13] was 1260 nM, the TGI [13] was 8210 nM and the GI50 [14] was 989 nM. It also gave a TGI [14] of 7080 nM, a GI50 [15] of 1270 nM and a TGI [15] of 4220 nM. The GI50 [16] was 2030 nM, the TGI [16] was 9400 nM and the GI50 [17] was 1920 nM. For the same molecule, the TGI [17] was 10200 nM, the GI50 [18] was 968 nM and the TGI [18] was 6830 nM. The GI50 [19] was 980 nM, the TGI [19] was 8650 nM and the GI50 [20] was 1250 nM. It also gave a TGI [20] of 10400 nM, a GI50 [21] of 1250 nM and a TGI [21] of 6500 nM. The GI50 [22] was 425 nM, the TGI [22] was 1290 nM and the GI50 [23] was 912 nM. For the same molecule, the TGI [23] was 4540 nM, the GI50 [24] was 921 nM and the TGI [24] was 5270 nM. For the same molecule, the GI50 [25] was 242 nM, the TGI [25] was 8020 nM and the GI50 [26] was 3040 nM. It also gave a TGI [26] of 11500 nM, a GI50 [27] of 1460 nM and a TGI [27] of 7560 nM. For the same molecule, the GI50 [28] was 230 nM, the TGI [28] was 4260 nM and the GI50 [29] was 1110 nM. For the same molecule, the TGI [29] was 4010 nM, the GI50 [30] was 1050 nM and the TGI [30] was 4870 nM. For the same molecule, the GI50 [31] was 205 nM, the TGI [31] was 1700 nM and the GI50 [32] was 704 nM. The TGI [32] was 3630 nM, the GI50 [33] was 1820 nM and the TGI [33] was 8310 nM. It also gave a GI50 [34] of 1550 nM, a TGI [34] of 7330 nM and a GI50 [35] of 2200 nM. For the same molecule, the TGI [35] was 12300 nM, the GI50 [36] was 2320 nM and the TGI [36] was 9650 nM. For the same molecule, the GI50 [37] was 1430 nM, the TGI [37] was 8710 nM and the GI50 [38] was 1190 nM. For the same molecule, the TGI [38] was 7300 nM, the GI50 [39] was 1550 nM and the TGI [39] was 9870 nM. For the same molecule, the GI50 [40] was 1310 nM, the TGI [40] was 5030 nM and the GI50 [41] was 1080 nM. For the same molecule, the TGI [41] was 7870 nM, the GI50 [42] was 598 nM and the TGI [42] was 3170 nM. The GI50 [43] was 2180 nM, the TGI [43] was 10600 nM and the GI50 [44] was 2160 nM. It also gave a TGI [44] of 8570 nM, a GI50 [45] of 791 nM and a TGI [45] of 2870 nM. For the same molecule, the GI50 [46] was 1190 nM, the TGI [46] was 4130 nM and the GI50 [47] was 1020 nM. The TGI [47] was 6120 nM, the GI50 [48] was 1460 nM and the TGI [48] was 13900 nM. It also gave a GI50 [49] of 765 nM, a TGI [49] of 5370 nM and a GI50 [50] of 176 nM. For the same molecule, the TGI [50] was 6760 nM, the GI50 [51] was 626 nM and the TGI [51] was 7420 nM. The GI50 [52] was 651 nM, the TGI [52] was 3840 nM and the GI50 [53] was 953 nM. For the same molecule, the TGI [53] was 5480 nM, the GI50 [54] was 604 nM and the TGI [54] was 5650 nM. For the same molecule, the GI50 [55] was 1970 nM, the TGI [55] was 7640 nM and the GI50 [56] was 568 nM. The TGI [56] was 1470 nM, the GI50 [57] was 1040 nM and the TGI [57] was 5770 nM.

From PubChem BioAssay (NCI)
